From patent US7589123B2, “Chemical compounds” (Phytopharm PLC, priority 2006, dated 2009)

How the values were obtained:
[1] = system: IL-1α-induced PGE2 release; test: IL-1α-induced PGE2 release in human diploid lung fibroblasts (WI-38) (Assay 5); type: cell-based; settings: WI-38 cells, IL-1α 1 nM, overnight
Summary of the method: (§1)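 WI-38 fibroblasts stimulated overnight at 37 °C with 1 nM IL-1α plus test compound at 3 and 30 μM in MEM with 10% FBS, pH 7.3; released PGE2 in supernatant quantified by radioimmunoassay as percent inhibition. Viability then checked by Alamar Blue, 4 h at 37 °C, fluorescence ex 530/em 590 nm.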

[2] = molecular target: T1, TRPV1 receptor (Rattus norvegicus, UniProt O35433); test: TRPV1 receptor modulation in the rat vas deferens, EFS-induced contraction (Assay 1); settings: electrical field stimulation
T1 sequence (O35433 whole entry): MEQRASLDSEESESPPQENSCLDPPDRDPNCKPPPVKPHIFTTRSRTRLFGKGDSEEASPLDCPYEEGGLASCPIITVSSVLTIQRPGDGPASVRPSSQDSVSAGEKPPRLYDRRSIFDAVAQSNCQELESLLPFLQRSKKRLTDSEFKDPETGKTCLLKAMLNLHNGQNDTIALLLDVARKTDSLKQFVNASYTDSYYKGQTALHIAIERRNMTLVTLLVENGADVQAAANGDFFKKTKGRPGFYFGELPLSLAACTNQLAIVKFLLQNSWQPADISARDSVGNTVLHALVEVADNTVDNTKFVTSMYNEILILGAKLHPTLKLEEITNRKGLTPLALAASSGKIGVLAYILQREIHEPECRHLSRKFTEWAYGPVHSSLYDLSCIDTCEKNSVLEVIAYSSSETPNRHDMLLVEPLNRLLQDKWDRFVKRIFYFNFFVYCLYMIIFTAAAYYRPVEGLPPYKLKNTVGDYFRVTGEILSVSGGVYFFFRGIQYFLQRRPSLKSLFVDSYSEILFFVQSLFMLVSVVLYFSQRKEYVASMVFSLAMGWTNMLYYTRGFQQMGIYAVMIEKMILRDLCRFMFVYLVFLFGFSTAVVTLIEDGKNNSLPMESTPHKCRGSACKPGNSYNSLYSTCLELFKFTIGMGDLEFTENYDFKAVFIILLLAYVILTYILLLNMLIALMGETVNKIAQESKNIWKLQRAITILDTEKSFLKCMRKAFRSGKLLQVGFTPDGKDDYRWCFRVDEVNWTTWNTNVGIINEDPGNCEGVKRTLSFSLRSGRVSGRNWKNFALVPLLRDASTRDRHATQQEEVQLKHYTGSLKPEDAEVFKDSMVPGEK
Protocol: Wistar derived male rats (275±25 g) were suppressed by CO2 overexposure. The vas deferens was removed, placed in Krebs solution, pH 7.4 (composition in g/l: NaCl 6.89, KCl 0.35, CaCl2 0.277, KH2PO4 0.163, MgSO4.7H2O 0.296, NaHCO3 2.1 glucose 1.8) and excess fat and connective tissue removed. The portion of the vas deferens closest to the prostate was cut in half and each half was placed under 1 g tension in a 10 ml bath containing Krebs solution at 32° C. The tissue was contracted by electrical field stimulation (EFS; 60% of maximum stimulation, 0.015 Hz, 0.5 ms in duration) and contractile responses were measured.

[3] = system: WI-38 cells; test: Viability of WI-38 cells, Alamar Blue (Assay 5); type: cell-based, human
Summary of the method: as §1

[4] = molecular target: T2, 5-lipoxygenase (Homo sapiens, UniProt P09917); test: 5-lipoxygenase activity (LTB4) in human peripheral blood mononuclear leukocytes (Assay 6); type: cell-based; settings: human PBMLs, A23187 30 μM
T2 construct: endogenous in cells; host or cells: human peripheral blood mononuclear leukocytes (PBMLs)
T2 sequence (P09917 1-674): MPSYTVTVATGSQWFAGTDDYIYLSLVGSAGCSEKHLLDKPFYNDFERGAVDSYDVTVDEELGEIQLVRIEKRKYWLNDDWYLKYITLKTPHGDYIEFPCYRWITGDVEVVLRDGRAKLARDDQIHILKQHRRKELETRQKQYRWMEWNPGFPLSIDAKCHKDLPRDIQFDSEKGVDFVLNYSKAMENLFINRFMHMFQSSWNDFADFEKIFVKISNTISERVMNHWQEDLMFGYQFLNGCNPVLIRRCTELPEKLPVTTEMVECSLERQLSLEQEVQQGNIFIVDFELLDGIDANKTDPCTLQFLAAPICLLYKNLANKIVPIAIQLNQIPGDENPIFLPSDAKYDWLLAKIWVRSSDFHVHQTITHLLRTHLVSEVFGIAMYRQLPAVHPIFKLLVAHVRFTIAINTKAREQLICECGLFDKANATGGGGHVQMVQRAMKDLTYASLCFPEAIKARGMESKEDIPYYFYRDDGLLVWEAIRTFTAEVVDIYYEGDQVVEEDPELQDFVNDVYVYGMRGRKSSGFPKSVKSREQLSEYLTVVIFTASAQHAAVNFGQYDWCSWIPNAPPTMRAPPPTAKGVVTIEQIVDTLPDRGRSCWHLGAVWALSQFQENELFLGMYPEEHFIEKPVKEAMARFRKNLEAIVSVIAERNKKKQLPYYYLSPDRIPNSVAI
Summary of the method: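 Human PBMLs (5×10^6 cells, Ficoll-isolated) stimulated with 30 μM A23187 plus compound at 3 or 30 μM or 0.1% DMSO in HBSS pH 7.4, 37° C., 15 min. After NaOH neutralisation and centrifugation, supernatant LTB4 measured by enzyme immunoassay.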

[5] = system: α-smooth muscle actin (α-SMA) mRNA; test: Anti-remodelling activity in human lung fibroblasts (HFL1): TGFβ-induced α-SMA mRNA (Assay 4); type: cell-based; settings: HFL1 cells, TGFβ 10 ng/ml, 24 h
Summary of the method: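 Real-time RT-PCR of α-SMA mRNA, GAPDH as reference, measured after 24 h exposure of low-serum-primed HFL1 cells to 10 ng/ml TGFβ with test compounds (3 and 30 μM) in 10% FBS medium. Readout is inhibition of TGFβ-driven α-SMA mRNA overexpression.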

[6] = molecular target: T1, TRPV1 receptor; test: TRPV1 modulation in DRG neurones: CGRP release in absence and presence of capsaicin (Assay 2); type: cell-based; set-up: The culture used for this experiment contained sensory neurones, Schwann cells and fibroblasts; endogenous in cells; host or cells: primary rat DRG sensory neurone culture (with Schwann cells and fibroblasts); settings: for Effect of test compounds on capsaicin (1 μM)-induced CGRP release (%): −ve: inhibition, +ve: potentiation of capsaicin response; for CGRP release (% of capsaicin (1 μM) response): rat DRG sensory neurones, 20 min
[7] = system: histamine-induced contractions in guinea pig ileum; test: Inhibition of histamine-induced contractions in guinea pig ileum (Assay 3); settings: histamine 1.7 μM
Summary of the method: (§2)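 Isolated male guinea pig ileum strips in Krebs at 32° C, pH 7.4, 1 g resting tension, isotonic recording. Contraction to test compound (3 and 30 μM) alone recorded, then inhibition of responses to histamine 1.7 μM or 5-HT 2.6 μM (~EC60-70, 5 min) measured in its continued presence.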

[8] = system: 5-HT-induced contractions in guinea pig ileum; test: Inhibition of 5-HT-induced contractions in guinea pig ileum (Assay 3); settings: 5-HT 2.6 μM
Summary of the method: as §2

[9] = system: guinea pig ileum; test: Effect of test compound alone on guinea pig ileum contraction (Assay 3)
Protocol: Duncan Hartley derived male guinea pigs (325±25 g) were suppressed by CO2 overexposure, the abdominal cavity was exposed and ileal segments were removed. Small strips of ileum were suspended in organ baths containing Krebs solution (composition in g/l: NaCl 6.89, KCl 0.35, CaCl2 0.277, KH2PO4 0.163, MgSO4.7H2O 0.296, NaHCO3 2.1 glucose 1.8). The solution was kept at 32° C. and gassed with O2 (95%)-CO2 (5%) to maintain pH at 7.4. Mechanical activity was recorded by means of isotonic transducers. A resting tension of 1 g was applied to muscle strips before being equilibrated for 1 h, prior to test compound addition. Each preparation was washed twice at 15 min intervals during the equilibration.
Histamine (1.7 μM; approximately EC60-70) or 5-hydroxytryptamine (5-HT, 2.6 μM; approximately EC60-70) was applied for 5 min and the amplitude of the contraction recorded. The histamine or 5-HT was then washed out until the ileal tissue returned to baseline. Five min after returning to baseline test compound (3 and 30 μM) was applied and the amplitude of the contraction (if any) was recorded. In the continuous presence of test compound, histamine or 5-HT was re-applied and the inhibition of the response was recorded.

For COc1cc(CCC(=O)CC(=O)C(C)C)ccc1O [Compound 1], the “Inhibition of IL-1α-induced PGE2 release (%)” value ([1]; 3 μM) was 68%, the “Inhibition of IL-1α-induced PGE2 release (%)” value ([1]; 30 μM) was 101% and the “Inhibition of EFS response relative to capsaicin” value [2] was 27%. For the same compound, the “Decrease in cell viability (%)” value ([3]; 3 μM) was 3%, the “Decrease in cell viability (%)” value ([3]; 30 μM) was −10% and the “Inhibition of 5-LO (%)” value ([4]; 3 μM) was 26%. The “Inhibition of 5-LO (%)” value ([4]; 30 μM) was 63%, the “Inhibition of α-SMA mRNA synthesis (%)” value ([5]; 3 μM) was 12% and the “Inhibition of α-SMA mRNA synthesis (%)” value ([5]; 30 μM) was 34%. For the same compound, the “Effect of test compounds on capsaicin (1 μM)-induced CGRP release (%)” value (from here on “Effect of test compounds on capsaicin … (%)”) ([6]; 3 μM with capsaicin 1 μM) was −36%, the “Effect of test compounds on capsaicin … (%)” value ([6]; 30 μM with capsaicin 1 μM) was −24% and the “CGRP release (% of capsaicin (1 μM) response)” value ([6]; test compound alone 3 μM) was 26%. The “CGRP release (% of capsaicin (1 μM) response)” value ([6]; test compound alone 30 μM) was 41%, the “Inhibition of histamine-induced contraction (%)” value ([7]; 3 μM) was 0% and the “Inhibition of histamine-induced contraction (%)” value ([7]; 30 μM) was 11%. For the same compound, the “Inhibition of 5-HT-induced contraction (%)” value ([8]; 3 μM) was 0%, the “Inhibition of 5-HT-induced contraction (%)” value ([8]; 30 μM) was 20% and the “Contraction of guinea pig ileum relative to 5-HT-induced contraction” value ([9]; 3 μM) was 0. For the same compound, the “Contraction of guinea pig ileum relative to histamine-induced contraction” value ([9]; 3 μM) was 0, the “Contraction of guinea pig ileum relative to 5-HT-induced contraction” value ([9]; 30 μM) was 0 and the “Contraction of guinea pig ileum relative to histamine-induced contraction” value ([9]; 30 μM) was 0.

In the case of COc1cc(CCC(=O)CC(=O)c2ccc(Cl)c(Cl)c2)ccc1O [Compound 23, 1-(3,4-Dihlorophenyl)-5-(4-hydroxy-3-methoxyphenyl)pentane-1,3-dione], the “Inhibition of IL-1α-induced PGE2 release (%)” value ([1]; 3 μM) is reported as 84%, the “Inhibition of IL-1α-induced PGE2 release (%)” value ([1]; 30 μM) is reported as 100% and the “Decrease in cell viability (%)” value ([3]; 3 μM) is reported as 6%. For the same compound, the “Decrease in cell viability (%)” value ([3]; 30 μM) was 16%, the “Inhibition of 5-LO (%)” value ([4]; 3 μM) was 63% and the “Inhibition of 5-LO (%)” value ([4]; 30 μM) was 98%. The “Inhibition of α-SMA mRNA synthesis (%)” value ([5]; 3 μM) was 13%, the “Inhibition of α-SMA mRNA synthesis (%)” value ([5]; 30 μM) was 79% and the “Effect of test compounds on capsaicin … (%)” value ([6]; 3 μM with capsaicin 1 μM) was −2%. The “Effect of test compounds on capsaicin … (%)” value ([6]; 30 μM with capsaicin 1 μM) was 47%, the “CGRP release (% of capsaicin (1 μM) response)” value ([6]; test compound alone 3 μM) was 84% and the “CGRP release (% of capsaicin (1 μM) response)” value ([6]; test compound alone 30 μM) was 242%. For the same compound, the “Inhibition of histamine-induced contraction (%)” value ([7]; 3 μM) was 8%, the “Inhibition of histamine-induced contraction (%)” value ([7]; 30 μM) was 37% and the “Inhibition of 5-HT-induced contraction (%)” value ([8]; 3 μM) was 11%. For the same compound, the “Inhibition of 5-HT-induced contraction (%)” value ([8]; 30 μM) was 25%, the “Contraction of guinea pig ileum relative to 5-HT-induced contraction” value ([9]; 3 μM) was 0 and the “Contraction of guinea pig ileum relative to histamine-induced contraction” value ([9]; 3 μM) was 0. For the same compound, the “Contraction of guinea pig ileum relative to 5-HT-induced contraction” value ([9]; 30 μM) was 0 and the “Contraction of guinea pig ileum relative to histamine-induced contraction” value ([9]; 30 μM) was 0.

With CCC(=O)CC(=O)CCc1ccc(O)c(OC)c1 [3-gingerdione, reference compound] the “Inhibition of IL-1α-induced PGE2 release (%)” value ([1]; 3 μM) was 61%, the “Inhibition of IL-1α-induced PGE2 release (%)” value ([1]; 30 μM) was 99% and the “Decrease in cell viability (%)” value ([3]; 3 μM) was 4%. The “Decrease in cell viability (%)” value ([3]; 30 μM) was 5%, the “Inhibition of 5-LO (%)” value ([4]; 3 μM) was −5% and the “Inhibition of 5-LO (%)” value ([4]; 30 μM) was 73%. The “Inhibition of α-SMA mRNA synthesis (%)” value ([5]; 3 μM) was 13%, the “Inhibition of α-SMA mRNA synthesis (%)” value ([5]; 30 μM) was 24% and the “Effect of test compounds on capsaicin … (%)” value ([6]; 3 μM with capsaicin 1 μM) was −37%. For the same compound, the “Effect of test compounds on capsaicin … (%)” value ([6]; 30 μM with capsaicin 1 μM) was −43%, the “CGRP release (% of capsaicin (1 μM) response)” value ([6]; test compound alone 3 μM) was 17% and the “CGRP release (% of capsaicin (1 μM) response)” value ([6]; test compound alone 30 μM) was 18%. The “Inhibition of histamine-induced contraction (%)” value ([7]; 3 μM) was 5%, the “Inhibition of histamine-induced contraction (%)” value ([7]; 30 μM) was 14% and the “Inhibition of 5-HT-induced contraction (%)” value ([8]; 3 μM) was 0%. For the same compound, the “Inhibition of 5-HT-induced contraction (%)” value ([8]; 30 μM) was 5%, the “Contraction of guinea pig ileum relative to 5-HT-induced contraction” value ([9]; 3 μM) was 0 and the “Contraction of guinea pig ileum relative to histamine-induced contraction” value ([9]; 3 μM) was 0. The “Contraction of guinea pig ileum relative to 5-HT-induced contraction” value ([9]; 30 μM) was 0 and the “Contraction of guinea pig ileum relative to histamine-induced contraction” value ([9]; 30 μM) was 0.

For COc1cc(CCC(=O)CC(=O)c2ccc(Cl)cc2Cl)ccc1O [Compound 24, 1-(2,4-Dihlorophenyl)-5-(4-hydroxy-3-methoxyphenyl)pentane-1,3-dione], the “Inhibition of IL-1α-induced PGE2 release (%)” value ([1]; 3 μM) was 93%, the “Inhibition of IL-1α-induced PGE2 release (%)” value ([1]; 30 μM) was 100% and the “Decrease in cell viability (%)” value ([3]; 3 μM) was 7%. For the same compound, the “Decrease in cell viability (%)” value ([3]; 30 μM) was 26%, the “Inhibition of 5-LO (%)” value ([4]; 3 μM) was 45% and the “Inhibition of 5-LO (%)” value ([4]; 30 μM) was 97%. The “Inhibition of α-SMA mRNA synthesis (%)” value ([5]; 3 μM) was 8%, the “Inhibition of α-SMA mRNA synthesis (%)” value ([5]; 30 μM) was 80% and the “Effect of test compounds on capsaicin … (%)” value ([6]; 3 μM with capsaicin 1 μM) was −13%. The “Effect of test compounds on capsaicin … (%)” value ([6]; 30 μM with capsaicin 1 μM) was 2%, the “CGRP release (% of capsaicin (1 μM) response)” value ([6]; test compound alone 3 μM) was 92% and the “CGRP release (% of capsaicin (1 μM) response)” value ([6]; test compound alone 30 μM) was 193%. For the same compound, the “Inhibition of histamine-induced contraction (%)” value ([7]; 3 μM) was 12%, the “Inhibition of histamine-induced contraction (%)” value ([7]; 30 μM) was 59% and the “Inhibition of 5-HT-induced contraction (%)” value ([8]; 3 μM) was 5%. For the same compound, the “Inhibition of 5-HT-induced contraction (%)” value ([8]; 30 μM) was 98%, the “Contraction of guinea pig ileum relative to 5-HT-induced contraction” value ([9]; 3 μM) was 0 and the “Contraction of guinea pig ileum relative to histamine-induced contraction” value ([9]; 3 μM) was 0. For the same compound, the “Contraction of guinea pig ileum relative to 5-HT-induced contraction” value ([9]; 30 μM) was 0 and the “Contraction of guinea pig ileum relative to histamine-induced contraction” value ([9]; 30 μM) was 0.
